Values joined by “and” are separate entries in the source; they are usually repeats but may differ in a detail not shown here. Identical values can stand only once.
Tests used:
Caco-2 cells = assay: Cytotoxicity on Caco-2 colon epithelial cells (LDH assay); type: cell-based; conditions: for cytotoxicity index on Caco-2 cells: 5 μg SM /ml, 24 h; for toxicity level to Caco-2 cells: 25 μg/mL or 50 μg/mL of SM for 24 h
Method: Cytotoxicity of the eight SMs (T1-T8) was tested on Caco-2 cells at 5, 25, and 50 μg/mL, as previously described ([Kumar et al., 2016]; [Deblais et al., 2019]). In brief, a 96-well plate seeded with approximately 1.4 × 10^5 Caco-2 cells/well in MEM medium was challenged with a final SM concentration of 5, 25, and 50 μg/mL. After 24 h of incubation at 37°C in a humidified 5% CO2 incubator, cytotoxic effects were determined using the PierceTM Lactate Dehydrogenase Cytotoxicity Assay Kit (Thermo Fisher Scientific). Cell death was measured based on the production of formazan (chromogenic dye), which can be read at OD570. Equal concentrations (5, 25, and 50 μg/mL) of kanamycin or chloramphenicol, 1% DMSO, and 10X lysis buffer were used as control. The cytotoxicity level was calculated according to the manufacturer’s instructions (N = two independent experiments with three technical replicate for each SM).

[1] = tested on: Commensal/beneficial gut bacteria (n = 7); assay: Activity spectrum against commensal/beneficial gut bacteria at 6.25 μg/mL; type: cell-based; conditions: 6.25 μg/mL SM; for Commensal/beneficial gut bacteria inhibited at 6.25 μg/mL (species): Ef Enterococcus faecalis, Lb Levilactobacillus brevis, LGG Lacticaseibacillus rhamnosus GG
Method: A similar experiment was performed with seven commensal/beneficial gut bacteria to determine species specificity of these SMs. In brief, an overnight suspension was normalized at 0.05 OD600 using the appropriate medium and challenged with 6.25 μg/mL of SM. Details about the strains and their growing conditions are shown in Supplementary Table S1. Medium alone and 1% DMSO were used as controls (N = 3 replicates per SM).

[2] = tested on: intracellular C. jejuni 81–176 in Caco-2 cells; assay: Copper sulfate sensitivity dose–response assay in infected Caco-2 colon epithelial cells; type: cell-based, Campylobacter jejuni; conditions: 0.5 mM CuSO4; for C. jejuni 81–176 MBC in Caco2 cells: infected Caco-2 cells, 24 h; for SM concentration that completely cleared intracellular C. jejuni 81–176 in Caco-2 cells (MBC in Caco2 cells): 24 h treatment
Method: The intracellular reduction in C. jejuni in the presence of a given SM (T1-T8) and 0.5 mM CuSO4 were evaluated using Caco-2 cells, as previously described ([Kumar et al., 2016]; [Deblais et al., 2019]). In brief, cells were infected for 2 h using a multiplicity of infection (MOI) of 100. Infected cells were treated with SM at a final concentration ranging between 5 and 0.315 μg/mL and incubated at 37°C for 24 h in a humidified 5% CO2 incubator. Following incubation, cells were washed once with 1X PBS, lysed with 0.1% Triton-100X, serially 10-fold diluted in 1X PBS, and plated on MH agar plate. Plates were incubated in microaerophilic conditions at 42°C for 24 h, to determine the intracellular survival. Cells not infected and not treated and cells infected and treated with 1% DMSO were used as controls (N = two independent experiments with four technical replicate for each SM).

[3] = tested on: C. jejuni (mixture of five strains) in chicken ceca; assay: C. jejuni persistence in ceca of 3-week-old colonized chickens; type: in vivo; conditions: 3-week-old chickens, oral twice a day for 5 days, approximately 0.127 mg of SM per kg body weight
Method: The antimicrobial efficacy of T1, T7, and T8 was also tested on 3-week-old chickens to assess the clearance of C. jejuni load in chicken right after inoculation. Overall, 3-week-old Campylobacter-free chickens were inoculated orally with a mixture of five C. jejuni strains (10^5 CFU/chicken, Supplementary Table S3). Rectal swabs were collected 1 DPI to confirm the intestinal colonization of the birds by C. jejuni (CFU/g of feces). From 2 DPI, chickens were treated orally twice a day for 5 days (from 2 DPI to 7 DPI) with one of the SMs (T1, T7, or T8; approximately 0.127 mg of SM per kg body weight; n = 5–6 chicken per group). Details of the treatment groups and the inoculum are shown in Supplementary Table S3.
For both experiments, C. jejuni colonized-chickens treated with 0.0001% DMSO and colonized chickens without additional carrier treatment (non-treated) were used as controls (n = 3–6 chicken per group). Details of the treatment groups and the inoculum are shown in Supplementary Table S3. Both 3 and 5-week-old chickens were euthanized at 7 DPI using carbon dioxide gas and ceca (cecal content and the pouch) and were aseptically collected. One of the ceca pairs was immediately stored at −80°C for microbiota studies. […]

Row | SMILES | cytotoxicity index on Caco-2 cells (Caco-2 cells) [%] | toxicity level to Caco-2 cells (Caco-2 cells) [%] | Growth inhibition at 6.25 μg/mL, Commensal/beneficial gut bacteria (strains inhibited/tested) [1] | C. jejuni 81–176 MBC in Caco2 cells [2] [µg/mL] | Commensal/beneficial gut bacteria inhibited at 6.25 μg/mL (species) [1] | SM concentration that completely cleared intracellular C. jejuni 81–176 in Caco-2 cells (MBC in Caco2 cells) [2] | reduction in C. jejuni population per gram of cecal contents compared with the DMSO-treated group [3] [log]
1 | CCCNC(=S)Nc1cc(OC)cc(OC)c1 [T1] | < 20 | 36 | 0/7 | 0.63 |  |  | 
2 | CC(C)(C)NC(=S)NNc1c(Cl)cncc1Cl [T2] | < 20 |  | 2/7 | 1.25 | Lb and Ef | < 5 µg/mL | 
3 | CSc1ccccc1-c1nnc(NC(=O)Cc2ccccc2)o1 [T7] | < 20 |  | 1/7 | 2.5 | LGG | < 5 µg/mL | 0.9
4 | CCN(CC)/C(C)=N/C(=O)Nc1ccccc1 [T8] | < 20 | 33 | 2/7 | 5 | Lb and Ef | < 5 µg/mL and 5 µg/mL | 
